Series [1] deals with obese ZSF1 rats. Put plainly: ZSF1 rat model of diabetic nephropathy with metabolic syndrome. It counts as in vivo. The source says: All data are plotted as mean±SEM. #p<0.05. ##p<0.01 vs obese control.
Aged ZSF1 rats have also been reported to develop HF consistent with HFpEF. In the ZSF1 model of diabetic nephropathy and metabolic syndrome, olinciguat was renoprotective and associated with lower circulating glucose, cholesterol, and triglycerides, all of which are relevant for this the population of post-menopausal women with HFpEF that tend to show a metabolic phenotype. Also in this model, baseline plasma NT-proBNP levels were similar in all obese ZSF1 groups [obese, group treated with enalapril (ENP), ENP+OLI10 (enalapril+oli at 10 mg/kg), and ENP+OLI30 (enalapril+oli at 30 mg/kg)]. NT-proBNP, analyzed as change from baseline to the end of treatment, increased in the obese control and ENP groups, and decreased in ENP+OLI10 and ENP+OLI30 groups (FIG. 5).

Series [2] deals with Dahl salt-sensitive rat model. Put plainly: Dahl salt-sensitive (DSS) hypertension rat model of HFpEF. It counts as in vivo. The settings on record: olinciguat 10 mg/kg, FIG. 4. Here is the method: All data are plotted as mean±SEM. **p<0.01. ***p<0.001 vs high-salt (HS) control.
The cardioprotective effects of olinciguat were tested in two animal models of HF: the rat post-myocardial infarction (MI) model of heart failure with reduced ejection fraction and in the Dahl salt-sensitive (DSS) hypertension model, which develops HFpEF.

Series [3] relates to normotensive and hypertensive rats. In words: Blood pressure in normotensive and hypertensive rats. It counts as in vivo, rat.
Series [4] deals with participants with HFpEF. Put plainly: CAPACITY HFpEF Phase 2 trial of praliciguat: cardiopulmonary exercise testing (CPET). It counts as in vivo, human. An excerpt: (§1) A Multicenter, Randomized, Double-Blind, Placebo-Controlled, Phase 2 Study Evaluating the Safety and Efficacy of Different Doses of Praliciguat (IW-1973, Compound I-1) Over 12 Weeks in Patients with Heart Failure with Preserved Ejection Fraction (CAPACITY HFpEF).
The primary objectives of this clinical study (ClinicalTrials.gov Identifier NCT03254485) were to assess the safety of oral praliciguat when administered for approximately 12 weeks to participants with HFpEF, and to evaluate the effect of oral praliciguat on peak exercise capacity (as measured by oxygen consumption [VO2]) when administered for approximately 12 weeks to participants with HFpEF, both in all participants and in participants without permanent or persistent atrial fibrillation.
The primary efficacy endpoint was the change from baseline in peak VO2 as measured by cardiopulmonary exercise testing (CPET) at Week 12 of the Treatment period. CPET was performed at baseline, at Week 8 and again at Week 12 using a highly standardized study-specific protocol. To participate in this study, each study site had to submit 2 studies to the CPET Core Laboratory at Massachusetts General Hospital core laboratory for review, and studies had to be determined to be of adequate quality before the site was deemed CPET qualified. For the 3 CPETs required by the study protocol, each study participant was to use the same form of exercise (treadmill or bicycle) and undergo the CPETs at the same time of day (+2 hours), ≥1 hour after study medication dosing. As part of the procedure, participants exercised to peak capacity beginning with unloaded exercise and continuing with a symptom-limited incremental ramp to peak VO2 with requisite respiratory exchange ratio (RER)≥1. For the baseline CPET, a participant's RER had to be ≥1.0 in order to indicate an adequate test (i.e., adequate effort on the part of the study participant, to try to mitigate stopping for non-cardiopulmonary reasons [e.g., effort-related or musculoskeletal]). Additional CPET-related study eligibility criteria included a peak VO2 of ≤80% of the predicted or age- and sex-adjusted normal level (FLETCHER G F, et al. Exercise standards. A statement for healthcare professionals from the American Heart Association. Writing Group. Circulation. 1995;91 [2]: 580-615), which served as an objective indicator of exercise intolerance characteristic of HF. For the Week 8 and End of Treatment CPETs, participants were to exercise to maximum effort, ideally to RER≥1.0. Analysis of CPET measurements for eligibility and for efficacy analyses were conducted by the independent central CPET Core Lab that was blinded to treatment allocation.
(§2) The pre-specified major secondary endpoints were the change from baseline in 6-minute walk test (6MWT) distance at Week 12, the change from baseline in ventilatory efficiency as defined by VE/VCO2 slope (minute ventilation/volume of carbon dioxide production) as obtained via CPET at Week 12, and the number of CPET responders defined as participants who improved by at least 1.5 mL O2/kg/min in peak VO2 from baseline to Week 12. In the CPET responder analysis, participants who were hospitalized or who died due to heart failure during the study Treatment Period or were missing Week 12 post-dose CPET values were considered to be non-responders.
(§3) This Phase 2, multicenter, randomized, double-blind, placebo-controlled, parallel-group study evaluated the safety and efficacy of praliciguat compared with placebo. The study randomized 196 adults with established heart failure (HF) and limited exercise capacity with an ejection fraction (EF) of at least 40% and who had at least 2 of 4 risk factors for HFpEF (diabetes/prediabetes, hypertension, obesity, and advanced age) (see Inclusion and Exclusion Criteria below).
Dosing on Days 1 to 14 (±3) was 20 mg BID (twice daily). Dosing on Day 15 (±3) onward was 40 mg QD (once daily). […]

The subject of series [5] is participants with HFpEF. In words: CAPACITY HFpEF Phase 2 trial of praliciguat: 6-minute walk test (6MWT). The class given is in vivo, human.
From the text: as §1, §2, §3
Screening Period: The Screening Period started with the signing of the ICF at the Screening Visit and lasted up to 45 days. At the Screening Visit, potential participants underwent screening procedures to determine their initial study eligibility. At the Baseline Visit, participants returned to the clinic for additional screening procedures to confirm their eligibility, including assessment of their CPET values, vital sign measurements, and blood and urine sample collections, and to receive urine sample collection supplies to take home. The Screening Visit could be combined with the Baseline Visit if the participant was fasted for blood and urine collections. CPET and 6MWT were to occur within 14 days before Randomization. The end of the Screening Period coincided with the beginning of the Treatment Period.

Series [6] relates to participants with HFpEF. In words: CAPACITY HFpEF Phase 2 trial of praliciguat: safety (treatment-emergent adverse events). The class given is in vivo, human.
From the text: as §1
(§4) The primary safety endpoints were based on the incidence of treatment-emergent adverse events (TEAEs) and of TEAEs that were considered study drug-related by the investigator. TEAEs were defined as AEs that started or worsened in severity after administration of study drug. Medical history, prior and concomitant medications and surgeries/procedures, and adverse events (AEs) were collected throughout the study. Physical examination, vital sign measurements including orthostatic blood pressures, clinical laboratory tests, pregnancy tests, and ECGs were performed. Blood was also collected to determine pharmacokinetic (PK) parameters and plasma concentrations of praliciguat.
as §3

In series [7] the test system is participants with HFpEF. In words: CAPACITY HFpEF Phase 2 trial of praliciguat: cardiometabolic endpoints (blood pressure, HbA1c). The class given is in vivo, human. The settings on record: Week 12.
From the text: as §1, §4
Other exploratory endpoints included assessment of echocardiographic parameters (as determined by an independent, central echocardiography core laboratory that was blinded to treatment assignment); changes from baseline to Week 12 and Follow-up visits in New York Heart Association (NYHA) functional classification (I, II, III, or IV); cardiac events (hospitalizations of CV etiology and all deaths were analyzed by the central, independent, blinded cardiac events adjudicators who determined if an event was due to heart failure or was of other CV etiology); changes from baseline to Week 12 in blood and urine biomarker levels that are relevant to HF pathophysiology; and changes from baseline to Week 12 in NT-proBNP values, urine albumin creatinine ratios (UACRs), estimated glomerular filtration rates (eGFRs), and HOMA-IR changes. Changes from baseline responses in participants' self-administered health-related quality-of-life (QOL) questionnaires were also tabulated and analyzed, including the Kansas City Cardiomyopathy Questionnaire (KCCQ), the Sheehan Disability Scale (SDS), the EuroQol (EQ) 5D-5L, and the Quick Inventory of Depressive Symptomatology Self-Report 16-item version (QIDS-SR-16).
Whereas the change from baseline relative to placebo in the general population was a reduction of 3.5 mmHg in the systolic blood pressure, this change was 7.9 mmHg reduction for the subpopulation of elderly women. Similarly, whereas the change from baseline relative to placebo in the general population was a reduction of 2.1 mmHg in the diastolic blood pressure, this change was 8.2 mmHg reduction for the subpopulation of elderly women. And also similarly, the change from baseline relative to placebo in the general population was a reduction of 0.18% points in the measurement of HbA1C, this change was 0.41% reduction from baseline relative to placebo for the subpopulation of elderly women

Series [8] relates to participants with chronic HF and an ejection fraction (EF) of ≥45% (i.e., HFpEF). The settings on record: cited from earlier work.
Series [9] relates to participants with chronic HF, an LVEF of at least 45% (i.e., HFpEF). As to conditions: cited from earlier work.
The subject of series [10] is women compared with men with heart failure and preserved ejection fraction. The settings on record: cited from earlier work.
Where [11] appears, read: 40 mg praliciguat vs placebo, Primary Analytic Population, Week 12.
[12] abbreviates: elderly women (older than 70), 12 weeks of treatment, CPET responder analysis.
Where [13] appears, read: women of age > 70, week 12, 40 mg.
The mark [14] stands for this setting: women of age > 70, week 12, 40 mg vs placebo.
[15] abbreviates: pooled three highest vericiguat dose arms, 12 weeks, vs placebo.

Read-outs that look alike come from different tables or passages of the source.

With `CCOC(=O)[C@H](CCc1ccccc1)N[C@@H](C)C(=O)N1CCC[C@H]1C(=O)O` [enalapril, reference compound], the “NT-proBNP, change from baseline to the end of treatment” value in series [1] (enalapril alone (ENP group), plasma, FIG. 5) is “increased”.

As for `NC(=O)[C@](O)(CNc1nc(-c2cc(-c3ccon3)n(Cc3ccccc3F)n2)ncc1F)C(F)(F)F` [olinciguat], in series [2], the “cardioprotection (cardiac weights)” value is on record as “cardioprotective” and the “lung congestion (lung weights)” value is recorded as “reduced lung congestion”. Besides, the NT-proBNP levels entry in series [2] (plasma) is reported as “reduced NT-proBNP levels”. In series [1] (rat, in vivo), the circulating cholesterol result was “lower”, the circulating glucose entry is on record as “lower”, the circulating triglycerides entry is “lower” and the renoprotection entry is on record as “renoprotective”. The blood pressure result in series [3] is reported as “reduced blood pressure”.

`OC(CNc1nc(-c2cc(-c3ccon3)n(Cc3ccccc3F)n2)ncc1F)(C(F)(F)F)C(F)(F)F` [praliciguat]: in series [4] (setting [11]), the “placebo-adjusted LSM difference in change from baseline in peak VO2” value was -0.30 mL/min/kg and the “placebo-adjusted LSM difference in change in ventilation/carbon dioxide production slope” value is listed as −0.3. The “adjusted change from baseline in peak VO2 at Week 12” value in [4] (40 mg praliciguat, Primary Analytic Population (n=65), Week 12) was -0.26 mL/min/kg. Further, in series [4] (setting [12]), the “patients with a higher than 1 mL/O2/kg/min improvement in peak VO2” value is given as “About 50%” and the “patients with a higher than 1.5 mL/O2/kg/min improvement in peak VO2” value is listed as 35-40%. Also, in [4] (post hoc, elderly women (70 years or older), 40 mg praliciguat (n=16) vs placebo (n=18), Week 8), the “placebo-adjusted LSM difference in change from baseline in peak VO2” value was 0.75 mL/min/kg. In addition, the “placebo-adjusted LSM difference in change from baseline in peak VO2” value in [4] (post hoc, elderly women (70 years or older), 40 mg praliciguat (n=16) vs placebo (n=18), Week 12) amounted to 1.58 mL/min/kg. In series [4] (sub-population of elderly women, week 12), the “improvement in peak work load” value was “about 6.5%”. Further, in [4] (whole population), the “worsening in peak work load” value is 1%. In series [4] (setting [13]), the “Peak Workload LS Mean” value was 12.6395 Watts. Moreover, the “Peak Workload LS Mean Diff” value in series [4] (setting [14]) is recorded as 6.5195 Watts. Further, the “placebo-adjusted LSM difference in change from baseline in 6MWT distance” value in [5] (setting [11]) was −16.7 m. Moreover, the “adjusted change in 6-minute walk test (6MWT) distance” value in series [5] (40 mg praliciguat, Primary Analytic Population, Week 12) is 41.4 m. In [5] (subpopulation of elderly women), the “improvement in 6MW vs placebo” value is recorded as 23 meters. In addition, the “Six Minute Walk Test LS Mean” value in series [5] (setting [13]) was 73.6369. For the same compound, the “Six Minute Walk Test LS Mean Diff” value in [5] (setting [14]) is listed as 22.7533. In addition, the deaths result in series [6] (40 mg praliciguat, fatal events considered not related to study drug) is listed as “One death”. Further, in series [6] (human, in vivo, 12 weeks), the “participants with at least one TEAE of dizziness” value was 9.9%, the “participants with at least one TEAE of headache” value is listed as 11%, the “participants with at least one TEAE of hypotension” value was determined as 8.8% and the “participants with at least one serious TEAE” value worked out at 10%. Further, in series [7] (general population), the “reduction in HbA1C, change from baseline relative to placebo” value is recorded as 0.18 % points; the “reduction in diastolic blood pressure, change from baseline relative to placebo” value amounted to 2.1 mmHg; the “reduction in systolic blood pressure, change from baseline relative to placebo” value came out at 3.5 mmHg. In [7] (subpopulation of elderly women), the “reduction in HbA1C, change from baseline relative to placebo” value was 0.41%; the “reduction in diastolic blood pressure, change from baseline relative to placebo” value was found to be 8.2 mmHg; the “reduction in systolic blood pressure, change from baseline relative to placebo” value is reported as 7.9 mmHg.

Turning to `COC(=O)Nc1c(N)nc(-c2nn(Cc3ccccc3F)c3ncc(F)cc23)nc1N` [vericiguat], the “proportion of participants achieving clinically meaningful improvements in KCCQ-clinical summary score” value in [8] (10 mg vericiguat compared with placebo arm) is “larger proportion”. Besides, in series [8] (setting [15]), the “change in left atrial volume” value was “NOT different from placebo” and the “change in log NT-proBNP” value is recorded as “NOT different from placebo”. In series [9] (10-mg group), the “mean change in the physical limitation score of the KCCQ” value is on record as 6.5 points. Besides, the “mean change in the physical limitation score of the KCCQ” value in [9] (15-mg group) is recorded as 5.5 points.

Regarding sacubitril-valsartan, the “rate ratio for sacubitril-valsartan versus valsartan, primary outcome (HF hospitalizations and cardiovascular death)” value is recorded as 1.03 in series [10] (men) and 0.73 in [10] (women).

Values taken from US20240366596A1, “TREATMENT OF HFPEF IN POST-MENOPAUSAL WOMEN WITH AN SGC STIMULATOR” (Cyclerion Therapeutics, Inc., priority 2021, published 2024).
